Laboratory results: patent US20150274719A1, “AMINO-SUBSTITUTED IMIDAZO[1,2-A]PYRIDINECARBOXAMIDES AND THEIR USE” (BAYER PHARMA AKTIENGESELLSCHAFT, priority 2012, published 2015)
Structures can show the parent of a compound that is named as a salt.

Biological target: T1, recombinant guanylate cyclase reporter cell line (Rattus norvegicus, UniProt P19686+P20595)
T1 construct: expressed in transfected cells; host or cells: recombinant reporter cell line
T1 sequence (P19686 1-690): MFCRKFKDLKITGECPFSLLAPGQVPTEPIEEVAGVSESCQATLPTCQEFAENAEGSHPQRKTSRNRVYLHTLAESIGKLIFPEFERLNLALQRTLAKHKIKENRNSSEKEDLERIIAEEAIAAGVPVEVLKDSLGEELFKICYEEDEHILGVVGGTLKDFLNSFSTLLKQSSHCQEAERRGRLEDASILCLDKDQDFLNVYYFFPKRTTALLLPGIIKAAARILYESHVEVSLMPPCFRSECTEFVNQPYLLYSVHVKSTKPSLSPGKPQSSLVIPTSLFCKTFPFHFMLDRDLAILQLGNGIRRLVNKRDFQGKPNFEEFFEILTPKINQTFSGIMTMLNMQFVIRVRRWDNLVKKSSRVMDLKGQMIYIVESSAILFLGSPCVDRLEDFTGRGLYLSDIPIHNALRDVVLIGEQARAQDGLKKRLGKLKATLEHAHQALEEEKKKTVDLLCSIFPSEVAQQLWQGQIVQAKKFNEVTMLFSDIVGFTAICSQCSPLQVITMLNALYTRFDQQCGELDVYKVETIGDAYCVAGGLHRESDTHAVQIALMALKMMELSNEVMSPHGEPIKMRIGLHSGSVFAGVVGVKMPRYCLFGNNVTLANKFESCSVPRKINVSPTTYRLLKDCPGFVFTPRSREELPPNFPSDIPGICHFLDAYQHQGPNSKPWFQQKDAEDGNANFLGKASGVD
T1 sequence (P20595 1-619): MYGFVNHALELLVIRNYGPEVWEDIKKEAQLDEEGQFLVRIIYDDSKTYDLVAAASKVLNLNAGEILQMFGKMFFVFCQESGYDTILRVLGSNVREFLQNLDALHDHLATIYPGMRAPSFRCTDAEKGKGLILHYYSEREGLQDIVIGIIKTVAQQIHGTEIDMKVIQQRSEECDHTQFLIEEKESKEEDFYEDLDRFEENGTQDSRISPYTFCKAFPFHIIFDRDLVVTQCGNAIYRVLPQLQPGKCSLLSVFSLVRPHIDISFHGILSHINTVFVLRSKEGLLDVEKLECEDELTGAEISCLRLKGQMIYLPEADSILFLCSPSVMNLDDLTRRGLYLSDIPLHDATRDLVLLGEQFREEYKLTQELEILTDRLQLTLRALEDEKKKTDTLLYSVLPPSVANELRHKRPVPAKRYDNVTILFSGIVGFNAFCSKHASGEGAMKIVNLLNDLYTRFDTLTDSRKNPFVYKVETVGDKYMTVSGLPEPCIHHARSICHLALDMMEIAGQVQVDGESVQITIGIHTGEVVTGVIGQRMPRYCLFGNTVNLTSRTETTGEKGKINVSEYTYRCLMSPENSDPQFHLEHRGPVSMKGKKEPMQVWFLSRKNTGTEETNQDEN
Assay: Action on recombinant guanylate cyclase reporter cell line
Format: cell-based
Conditions: in some cases mean values from individual determinations
Description: B-2. Action on Recombinant Guanylate Cyclase Reporter Cell Line
The cellular action of the compounds according to the invention is determined on a recombinant guanylate cyclase reporter cell line, as described in F. Wunder et al., Anal. Biochem. 339, 104-112 (2005).
Representative MEC values (MEC=minimal effective concentration) for the compounds according to the invention are shown in the following table (in some cases as mean values obtained from individual determinations): […]

SMILES	MEC (minimal effective concentration) [µM]
Cc1nc2c(OCc3c(F)cccc3F)cccn2c1C(=O)NC(CN)CC(F)(F)F (racemic) [Example 2, rac-N-(1-Amino-4,4,4-trifluorobutan-2-yl)-8-[(2,6-difluorobenzyl)oxy]-2-methylimidazo[1,2-a]-pyridine-3-carboxamide]	0.65
Cc1nc2c(OCc3c(F)cccc3F)cccn2c1C(=O)NC(CN)CC(C(F)(F)F)C(F)(F)F (racemic) [Example 5, rac-N-[1-amino-5,5,5-trifluoro-4-(trifluoromethyl)pentan-2-yl]-8-[(2,6-difluorobenzyl)oxy]-2-methylimidazo[1,2-a]-pyridine-3-carboxamide trifluoroacetate]	1.00
Cc1nc2c(OCc3c(F)cccc3F)cccn2c1C(=O)NC(CN)c1ccc(F)cc1 (racemic) [Example 9, rac-N-[2-Amino-1-(4-fluorophenyl)ethyl]-8-[(2,6-difluorobenzyl)oxy]-2-methylimidazo[1,2-a]-pyridine-3-carboxamide]	0.30
Cc1nc2c(OCc3c(F)cccc3F)cccn2c1C(=O)NC(CN)c1ccc(F)c(F)c1 (racemic) [Example 11, rac-N-[2-Amino-1-(3,4-difluorophenyl)ethyl]-8-[(2,6-difluorobenzyl)oxy]-2-methylimidazo[1,2-a]pyridine-3-carboxamide]	0.30
Cc1nc2c(OCc3c(F)cccc3F)cccn2c1C(=O)NC(CN)c1ccc(Cl)cc1 (racemic) [Example 14, rac-N-[2-Amino-1-(4-chlorophenyl)ethyl]-8-[(2,6-difluorobenzyl)oxy]-2-methylimidazo[1,2-a]-pyridine-3-carboxamide dihydrochloride]	1.00
Cc1nc2c(OCc3c(F)cccc3F)cccn2c1C(=O)NC(CN)c1ccccc1 (racemic) [Example 16, rac-N-(2-Amino-1-phenylethyl)-8-[(2,6-difluorobenzyl)oxy]-2-methylimidazo[1,2-a]pyridine-3-carboxamide dihydrochloride]	0.30
Cc1nc2c(OCC3CCCCC3)cccn2c1C(=O)NC(CN)c1ccc(Cl)cc1 (racemic) [Example 43, rac-N-[2-Amino-1-(4-chlorophenyl)ethyl]-8-(cyclohexylmethoxy)-2-methylimidazo[1,2-a]-pyridine-3-carboxamide]	1.00
Cc1nc2c(OCC3CCCCC3)cccn2c1C(=O)NC(CN)c1ccccc1 (racemic) [Example 44, rac-N-(2-Amino-1-phenylethyl)-8-(cyclohexylmethoxy)-2-methylimidazo[1,2-a]pyridine-3-carboxamide]	0.30
Cc1nc2c(OCC3CCCCC3)cccn2c1C(=O)NC(CN)c1ccc(F)c(F)c1 (racemic) [Example 46, rac-N-[2-Amino-1-(3,4-difluorophenyl)ethyl]-8-(cyclohexylmethoxy)-2-methylimidazo[1,2-a]-pyridine-3-carboxamide]	1.00
Cc1nc2c(OCc3c(F)cccc3F)cccn2c1C(=O)NC1CCNc2ccccc21 (racemic) [Example 50, rac-8-[(2,6-Difluorobenzyl)oxy]-2-methyl-N-(1,2,3,4-tetrahydroquinolin-4-yl)imidazo[1,2-a]-pyridine-3-carboxamide]	0.03
Cc1nc2c(OCc3c(F)cccc3F)cccn2c1C(=O)NC(CN)COc1ccc(F)cc1 (racemic) [Example 58, rac-N-[1-amino-3-(4-fluorophenoxy)propan-2-yl]-8-[(2,6-difluorobenzyl)oxy]-2-methylimidazo[1,2-a]pyridine-3-carboxamide]	1.00
Cc1nc2c(OCc3c(F)cccc3F)cccn2c1C(=O)NC(CN)COc1ccccc1 (racemic) [Example 59, rac-N-(1-amino-3-phenoxypropan-2-yl)-8-[(2,6-difluorobenzyl)oxy]-2-methylimidazo[1,2-a]-pyridine-3-carboxamide dihydrochloride]	3.00
Cc1nc2c(OCc3c(F)cccc3F)cccn2c1C(=O)NC(CN)COC(C)C (racemic) [Example 63, rac-N-(1-Amino-3-isopropoxypropan-2-yl)-8-[(2,6-difluorobenzyl)oxy]-2-methylimidazo[1,2-a]-pyridine-3-carboxamide]	0.30
Cc1nc2c(OCc3c(F)cccc3F)cccn2c1C(=O)NC1CNc2ccccc2C1 (racemic) [Example 75, rac-8-[(2,6-Difluorobenzyl)oxy]-2-methyl-N-(1,2,3,4-tetrahydroquinolin-3-yl)imidazo[1,2-a]-pyridine-3-carboxamide]	1.00

More lines, now with the values ahead:

MEC (minimal effective concentration) [µM]	SMILES
0.20	Cc1cc(OCc2c(F)cccc2F)c2nc(C)c(C(=O)NC3CCC(N)C3)n2c1 (mixture of isomers) [Example 308, N-(3-aminocyclopentyl)-8-[(2,6-difluorobenzyl)oxy]-2,6-dimethylimidazo[1,2-a]pyridine-3-carboxamide (stereoisomer mixture)]
0.30	Cc1cc(OCc2c(F)cccc2F)c2nc(C)c(C(=O)NC3CNCC3C(F)(F)F)n2c1 (mixture of isomers) [Example 313, 8-[(2,6-Difluorobenzyl)oxy]-2,6-dimethyl-N-[4-(trifluoromethyl)pyrrolidin-3-yl]imidazo[1,2-a]pyridine-3-carboxamide (mixture of stereoisomers)]
1.00	Cc1cc(OCc2c(F)cccc2F)c2nc(C)c(C(=O)NC3CC(N)C3)n2c1 (mixture of isomers) [Example 334, N-(3-aminocyclobutyl)-8-[(2,6-difluorobenzyl)oxy]-2,6-dimethylimidazo[1,2-a]pyridine-3-carboxamide (cis/trans mixture)]
0.30	Cc1cc(OCc2c(F)cccc2F)c2nc(C)c(C(=O)NC3CC(C)(C)C3N)n2c1 (mixture of isomers) [Example 358, N-(2-amino-3,3-dimethylcyclobutyl)-8-[(2,6-difluorobenzyl)oxy]-2,6-dimethylimidazo[1,2-a]pyridine-3-carboxamide Formate (Isomer Mixture)]
1.00	Cc1nc2c(OCc3c(F)cccc3F)cccn2c1C(=O)NC(C)CN (racemic) [Example 17, rac-N-(1-aminopropan-2-yl)-8-[(2,6-difluorobenzyl)oxy]-2-methylimidazo[1,2-a]pyridine-3-carboxamide dihydrochloride]
0.30	Cc1nc2c(OCc3c(F)cccc3F)cc(Cl)cn2c1C(=O)NCC(C)N (racemic) [Example 23, rac-N-(2-aminopropyl)-6-chloro-8-[(2,6-difluorobenzyl)oxy]-2-methylimidazo[1,2-a]-pyridine-3-carboxamide]
0.30	Cc1nc2c(OCc3c(F)cccc3F)cccn2c1C(=O)NC1CNc2ccccc21 (racemic) [Example 28, rac-8-[(2,6-difluorobenzyl)oxy]-N-(2,3-dihydro-1H-indol-3-yl)-2-methylimidazo[1,2-a]pyridine-3-carboxamide]
1.00	Cc1nc2c(OCc3c(F)cccc3F)cccn2c1C(=O)NCC(C)N (racemic) [Example 34, rac-N-(2-aminopropyl)-8-[(2,6-difluorobenzyl)-oxy]-2-methyl-imidazo[1,2-a]pyridine-3-carboxamide dihydrochloride]
0.30	Cc1nc2c(OCc3c(F)cccc3F)cc(Cl)cn2c1C(=O)NC1CNc2ccccc21 (racemic) [Example 49, rac-6-Chloro-8-[(2,6-difluorobenzyl)oxy]-N-(2,3-dihydro-1H-indol-3-yl)-2-methylimidazo[1,2-a]-pyridine-3-carboxamide]
